# Read-outs that look alike come from different tables or passages of the source.
# How the values were obtained:
# hPIV-3 HN [1] = biological target: T1, hPIV-3 HN (UniProt P08492); type: biochemical, hPIV-3 (strain C-243); set-up: rows headed: HI Mean IC50; hPIV-3 HN; 3 independent experiments; fold improvement in HI assay; other: versus 6; hPIV-3 HN HI IC50; other: text; other: text, unit given as M
# T1 sequence (P08492 1-572): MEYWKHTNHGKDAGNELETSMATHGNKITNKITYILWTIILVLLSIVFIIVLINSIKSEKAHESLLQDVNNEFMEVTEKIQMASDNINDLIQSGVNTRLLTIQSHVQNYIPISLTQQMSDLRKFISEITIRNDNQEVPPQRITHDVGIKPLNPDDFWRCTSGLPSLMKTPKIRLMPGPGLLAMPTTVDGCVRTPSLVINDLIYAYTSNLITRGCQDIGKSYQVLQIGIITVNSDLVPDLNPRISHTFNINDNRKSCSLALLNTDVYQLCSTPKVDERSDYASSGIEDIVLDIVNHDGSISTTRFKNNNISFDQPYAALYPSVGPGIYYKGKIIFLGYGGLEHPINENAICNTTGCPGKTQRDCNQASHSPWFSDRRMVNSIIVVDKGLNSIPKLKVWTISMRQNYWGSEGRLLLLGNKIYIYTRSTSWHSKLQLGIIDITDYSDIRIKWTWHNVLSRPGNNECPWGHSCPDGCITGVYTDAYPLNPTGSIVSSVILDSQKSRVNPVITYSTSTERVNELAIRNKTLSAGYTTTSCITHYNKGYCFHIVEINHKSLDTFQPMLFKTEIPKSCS
# hPIV-3 HN [2] = biological target: T1, hPIV-3 HN; type: biochemical, hPIV-3 (strain C-243); set-up: rows headed: NI Mean IC50; hPIV-3 HN; 3 independent experiments; Ki; Km value for MUN; other: whole hPIV-3 virus, [I]=0; fold improvement in NI assay; other: versus 6; hPIV-3 HN NI IC50; other: text; other: text, unit given as M
# hPIV-3 HN [3] = biological target: T1, hPIV-3 HN; type: biochemical, hPIV-3 (strain C-243); set-up: rows headed: NI Mean IC50; hPIV-3 HN; 3 independent experiments; Ki; Km value for MUN; other: whole hPIV-3 virus, [I]=0; fold improvement in NI assay; other: versus 6; hPIV-3 HN NI IC50; other: text; other: text, unit given as M; remark: listed apart in the source
# hPIV-3 [4] = experiment: Virus growth inhibition assay, titration of progeny virus (focus forming assay) in LLC-MK2 cells; type: cell-based, hPIV-3 (strain C-243)
# hPIV-3 HN [5] = biological target: T1, hPIV-3 HN; type: biochemical, hPIV-3 (strain C-243); set-up: rows headed: NI hPIV-3 IC50; settings: read-out: NI hPIV-3 IC50
# hPIV-3 [6] = experiment: In situ ELISA virus growth inhibition; type: cell-based, hPIV-3 (strain C-243)
# hPIV-1 NI = hPIV-1 NI (Human parainfluenza 1 virus, UniProt P16071); experiment: biochemical
# Chain of hPIV-1 NI (P16071 whole entry): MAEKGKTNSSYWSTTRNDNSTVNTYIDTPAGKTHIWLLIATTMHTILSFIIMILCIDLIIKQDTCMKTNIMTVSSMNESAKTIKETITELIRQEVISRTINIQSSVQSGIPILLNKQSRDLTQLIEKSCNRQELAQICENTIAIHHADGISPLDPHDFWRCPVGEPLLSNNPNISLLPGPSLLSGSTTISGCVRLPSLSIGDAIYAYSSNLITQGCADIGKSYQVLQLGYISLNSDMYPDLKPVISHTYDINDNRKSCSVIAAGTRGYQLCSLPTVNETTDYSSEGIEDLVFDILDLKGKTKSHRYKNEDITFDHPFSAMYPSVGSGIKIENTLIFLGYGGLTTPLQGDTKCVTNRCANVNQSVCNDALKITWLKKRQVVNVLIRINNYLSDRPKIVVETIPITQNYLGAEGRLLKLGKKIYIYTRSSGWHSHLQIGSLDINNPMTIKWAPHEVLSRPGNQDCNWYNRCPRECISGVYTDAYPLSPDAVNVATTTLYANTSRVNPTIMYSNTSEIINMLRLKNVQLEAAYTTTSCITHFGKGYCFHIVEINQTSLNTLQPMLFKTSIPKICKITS
# Experimental: IC50 values for a number of compounds of the first aspect were determined by standard assay methods previously described in Guillon, P et al, Nature Communications (2014).
# hPIV-3 HN [7] = biological target: T2, hPIV-3 HN (Human parainfluenza 3 virus, UniProt P08492); type: biochemical, hPIV-3 (strain C-243); settings: Table 5; read-out: hPIV-3 NI (IC50 values)
# hPIV-3 HN [8] = biological target: T2, hPIV-3 HN; type: binding; settings: 20 μM hPIV-3 HN, protein:ligand 1:100
# LLC-MK2 cells = experiment: MTT assay for compound cytotoxicity; settings: 48 h, 30 μM, highest concentration tested
# Experimental: Infection was performed in duplicate and continued for 1 h at 37° C. with gentle agitation every 15 min. Inocula were removed and replaced with 500 μL/well of each respective 2 μM compound dilution (in EMEMinf).
# [9] = Table 2 prints no unit, μM, hPIV-3 HN, 3 independent experiments, read-out: NI Mean IC50
# [10] = Table 2 prints no unit, μM, hPIV-3 HN, 3 independent experiments, read-out: HI Mean IC50
# [11] = Human respirovirus 3, Table 4, A549 cells, hPIV-3, read-out: Cell-based ELISA IC50
compound,measurement,setting,value
"CC(=O)NC1C(N=[N+]=[N-])C=C(C(=O)O)OC1C(O)C(O)CO (stereo not shown) [Compound 3, 4-azido-4-deoxy-Neu5Ac2en, reference compound]",IC50,hPIV-3 HN [1]; read-out: hPIV-3 HN HI IC50,210 µM
same,IC50,hPIV-3 HN [2]; [9],138 µM
"CC(C)C(=O)NC1C(O)C=C(C(=O)O)OC1C(O)C(O)CO (stereo not shown) [Compound 5, reference compound]",IC50,hPIV-3 HN [1]; [10],358 µM
same,IC50,hPIV-3 HN [2]; [9],188 µM
"CC(C)C(=O)N[C@H]1[C@H]([C@H](O)[C@H](O)CO)OC(C(=O)O)=C[C@@H]1N=[N+]=[N-] [Compound 6, BCX 2798, reference compound]",Ki,hPIV-3 HN [3],16 µM
same,IC50,hPIV-3 HN [1]; read-out: HI Mean IC50,16.1 µM
same,IC50,hPIV-3 HN [1]; read-out: hPIV-3 HN HI IC50,16.1 µM
same,Virus growth inhibition (reduction in virus titre),"hPIV-3 [4]; 2 μM inhibitor, 48 h, LLC-MK2 cells, low MOI",14%
same,IC50,hPIV-3 HN [5],18 µM
same,IC50,hPIV-3 HN [2]; read-out: NI Mean IC50,21.5 µM
same,IC50,hPIV-3 HN [2]; read-out: hPIV-3 HN NI IC50,21.5 µM
same,IC50,"hPIV-3 [6]; LLC-MK2, A549 and NHBE cells, read-out: Virus growth inhibition IC50, range over all three cell lines",54.6 to 131 µM
same,IC50,"hPIV-3 [6]; LLC-MK2 cells, read-out: Virus growth IC50 (in situ ELISA)",54.6 ± 3.8 µM
same,IC50,"hPIV-3 [6]; NHBE cells, read-out: Virus growth IC50 (in situ ELISA)",79.3 ± 1 µM
same,IC50,"hPIV-3 [6]; Table 4, A549 cells, hPIV-3, read-out: Cell-based ELISA IC50",130 µM
"COCc1cn([C@H]2C=C(C(=O)O)O[C@@H]([C@H](O)[C@H](O)CO)[C@@H]2NC(C)=O)nn1 [Compound 7, Sodium 5-acetamido-2,6-anhydro-3,4,5-trideoxy-4-(4-methoxymethyl-[1,2,3,]triazol-1-yl)-D-glycero-D-galacto-non-2-enonate]",IC50,hPIV-1 NI,19.8 µM
same,IC50,hPIV-3 HN [1]; [10],312 µM
same,IC50,hPIV-3 HN [1]; read-out: hPIV-3 HN HI IC50,313 µM
same,IC50,hPIV-3 HN [7],148 µM
same,IC50,hPIV-3 HN [2]; [9],154 µM
same,IC50,hPIV-3 HN [2]; read-out: hPIV-3 HN NI IC50,154 µM
"CC(=O)N[C@H]1[C@H]([C@H](O)[C@H](O)CO)OC(C(=O)[O-])=C[C@@H]1n1cc(-c2ccccc2)nn1.[Na+] [Compound 8, Sodium 5-acetamido-2,6-anhydro-3,4,5-trideoxy-4-(4-phenyl-[1,2,3,]triazol-1-yl)-D-glycero-D-galacto-non-2-enonate]","Relative STD NMR effect, ArH4′",hPIV-3 HN [8]; reference signal,100%
same,"Relative STD NMR effect, ArH2′ ArH6′",hPIV-3 HN [8]; relative to ArH4′,92%
same,"Relative STD NMR effect, ArH3′ ArH5′",hPIV-3 HN [8]; relative to ArH4′,100%
same,"Relative STD NMR effect, H3",hPIV-3 HN [8]; relative to ArH4′,85%
same,"Relative STD NMR effect, H4",hPIV-3 HN [8]; relative to ArH4′,59%
same,"Relative STD NMR effect, H5",hPIV-3 HN [8]; relative to ArH4′,50%
same,"Relative STD NMR effect, H6",hPIV-3 HN [8]; relative to ArH4′,49%
same,"Relative STD NMR effect, H7",hPIV-3 HN [8]; relative to ArH4′,30%
same,"Relative STD NMR effect, H8",hPIV-3 HN [8]; relative to ArH4′,30%
same,"Relative STD NMR effect, H9",hPIV-3 HN [8]; relative to ArH4′,12%
same,"Relative STD NMR effect, H9′",hPIV-3 HN [8]; relative to ArH4′,18%
same,"Relative STD NMR effect, NHAc",hPIV-3 HN [8]; relative to ArH4′,41%
same,"Relative STD NMR effect, Triazole CH",hPIV-3 HN [8]; relative to ArH4′,63%
same,IC50,hPIV-1 NI,168 µM
same,IC50,hPIV-3 HN [1]; [10],4.58 µM
same,IC50,hPIV-3 HN [1]; read-out: hPIV-3 HN HI IC50,4.6 µM
same,IC50,hPIV-3 HN [7],5.85 µM
same,IC50,hPIV-3 HN [2]; [9],6.51 µM
same,IC50,hPIV-3 HN [2]; read-out: hPIV-3 HN NI IC50,6.5 µM
same,Cytotoxic effect (MTT),LLC-MK2 cells,No cytotoxic effect
"COCc1cn([C@H]2C=C(C(=O)O)O[C@@H]([C@H](O)[C@H](O)CO)[C@@H]2NC(=O)C(C)C)nn1 [Compound 9, Sodium 2,6-anhydro-3,4,5-trideoxy-5-isobutyramido-4-(4-methoxymethyl-[1,2,3,]triazol-1-yl)-D-glycero-D-galacto-non-2-enonate]",IC50,hPIV-1 NI,0.489 µM
same,IC50,hPIV-3 HN [1]; [10],13.8 µM
same,IC50,hPIV-3 HN [1]; read-out: hPIV-3 HN HI IC50,13.8 µM
same,IC50,hPIV-3 HN [7],13.1 µM
same,IC50,hPIV-3 HN [2]; [9],14.2 µM
same,IC50,hPIV-3 HN [2]; read-out: hPIV-3 HN NI IC50,14.2 µM
"CC(C)C(=O)N[C@H]1[C@H]([C@H](O)[C@H](O)CO)OC(C(=O)[O-])=C[C@@H]1n1cc(-c2ccccc2)nn1.[Na+] [Compound 10, Sodium 2,6-anhydro-3,4,5-trideoxy-5-isobutyramido-4-(4-phenyl-[1,2,3,]triazol-1-yl)-D-glycero-D-galacto-non-2-enonate]",inhibition at 2 µM,"hPIV-3 [4]; Human respirovirus 3, LLC-MK2, 48 h, read-out: Virus growth inhibition (reduction in virus titre)",94%
same,Cytotoxic effect (MTT),LLC-MK2 cells,No cytotoxic effect
same,IC50,"hPIV-3 [6]; Human respirovirus 3, A549, read-out: Virus growth IC50 (in situ ELISA)",10.3 ± 0.3 µM
same,IC50,"hPIV-3 [6]; Human respirovirus 3, LLC-MK2, read-out: Virus growth IC50 (in situ ELISA)",2.1 ± 0.6 µM
same,IC50,"hPIV-3 [6]; Human respirovirus 3, NHBE, read-out: Virus growth IC50 (in situ ELISA)",13.9 ± 0.7 µM
same,IC50,"hPIV-3 [6]; Human respirovirus 3, read-out: Virus growth inhibition IC50, range over all three cell lines",2.1 to 13.9 µM
same,"times more potent than 6, cell-based assay","hPIV-3 [6]; LLC-MK2 cells, versus 6",~26 times
CC(C)C(=O)NC1C(N=[N+]=[N-])C(F)C(F)(C(=O)O)OC1[C@H](O)[C@H](O)CO (stereo partly shown) [I-70],IC50,hPIV-3 HN [5]; Table 4,6 µM
same,IC50,hPIV-3 [6]; [11],14 µM
CC(C)C(=O)NC1C([C@H](O)[C@H](O)CO)OC(F)(C(=O)O)C(F)C1n1cc(-c2ccccc2)nn1 (stereo partly shown) [I-79],IC50,hPIV-3 HN [5]; Table 4,63 µM
same,IC50,hPIV-3 [6]; [11],45 µM
COCc1cn(C2C(NC(=O)C(C)C)C(C(O)C(O)CO)OC(F)(C(=O)O)C2F)nn1 (stereo not shown) [I-104],IC50,hPIV-3 HN [5]; Table 4,4 µM
same,IC50,hPIV-3 [6]; [11],25 µM
"CC(=O)N[C@H]1[C@H]([C@H](O)[C@H](O)CO)O[C@@](Oc2ccc3c(C)cc(=O)oc3c2)(C(=O)O)C[C@@H]1O [MUN, 2′-(4-methylumbelliferyl) […]-D-N-acetylneuraminide]",Km,hPIV-3 HN [3]; read-out: Km value for MUN,5.1 mM
